Laboratory results reported in paper PMC6052120, “Bioactive Phenolics of the Genus Artemisia (Asteraceae): HPLC-DAD-ESI-TQ-MS/MS Profile of the Siberian Species and Their Inhibitory Potential Against α-Amylase and α-Glucosidase” (Frontiers in Pharmacology, 2018).

Experiments:
[1] = molecular target: T1, α-amylase from Aspergillus oryzae (Aspergillus oryzae, UniProt P0C1B3); format: biochemical; conditions: pure caffeoylquinic acids (CQA); acarbose reference; read-out: Inhibitory activity against enzyme as IC50 α-Amylase
T1 construct: purchased Sigma-Aldrich (St. Louis, MO, USA) 10065
Procedure: α-Amylase inhibitory activity was assayed according to a previously published spectrophotometric protocol (Olennikov and Kashchenko, [2014]). Sample solution in DMSO (10 μL) at varying concentrations (10, 100, 250, 500, and 1,000 μg/mL), 30 μL of phosphate buffer (pH 5.0) and 10 μL of α-amylase from Aspergillus oryzae (3 U/mL) were incubated for 20 min at . Then 10 μL of 2% starch solution, 40 μL of phosphate buffer (pH 5.0) and 100 μL of the reagent were added and incubated for 30 min at . The reagent was a solution of K2HPO4 (0.8 mM), KH2PO4 (0.4 mM), phenol (220 mM), 4-aminoantipyrine (1.5 μM), glucose oxidase from Aspergillus oryzae (3 U/mL), and peroxidase from horseradish (0.3 U/mL) in deionized water. Absorbance was measured at 510 nm. […] The ability to inhibit α-amylase was calculated using the following equation: […]
(§1) Values are expressed as mean obtained from five independent experiments.

[2] = molecular target: T2, α-Glucosidase from Saccharomyces cerevisiae (Saccharomyces cerevisiae, UniProt P53341); experiment: α-glucosidase inhibition assay, spectrophotometric method; format: biochemical; conditions: pure caffeoylquinic acids (CQA); acarbose reference; read-out: Inhibitory activity against enzyme as IC50 α-Glucosidase
T2 construct: purchased Sigma-Aldrich (St. Louis, MO, USA) G5003
Procedure: The α-glucosidase inhibition assay was performed using spectrophotometric method (Olennikov et al., [2017b]). α-Glucosidase from Saccharomyces cerevisiae was dissolved in phosphate buffer (pH 6.8) containing bovine serum albumin (2 mg/mL) up to 0.5 U/mL concentration. Solution (10 μL) of sample in DMSO–phosphate buffer, pH 6.8 (1:9) at varying concentrations (10, 100, 250, 500, and 1,000 μg/mL) was premixed with 490 μL of phosphate buffer (pH 6.8) and 250 μL 5 mM p-nitrophenyl α-D-glucopyranoside. After preincubating at for 5 min, 250 μL α-glucosidase (0.5 U/mL) was added and incubated at for 15 min. The reaction was terminated by the addition of 2,000 μL Na2CO3 (200 mM). Absorbance was measured at 400 nm. […] The ability to inhibit α-glucosidase was calculated using the following equation: […]
as §1

T2 sequence (P53341 whole entry): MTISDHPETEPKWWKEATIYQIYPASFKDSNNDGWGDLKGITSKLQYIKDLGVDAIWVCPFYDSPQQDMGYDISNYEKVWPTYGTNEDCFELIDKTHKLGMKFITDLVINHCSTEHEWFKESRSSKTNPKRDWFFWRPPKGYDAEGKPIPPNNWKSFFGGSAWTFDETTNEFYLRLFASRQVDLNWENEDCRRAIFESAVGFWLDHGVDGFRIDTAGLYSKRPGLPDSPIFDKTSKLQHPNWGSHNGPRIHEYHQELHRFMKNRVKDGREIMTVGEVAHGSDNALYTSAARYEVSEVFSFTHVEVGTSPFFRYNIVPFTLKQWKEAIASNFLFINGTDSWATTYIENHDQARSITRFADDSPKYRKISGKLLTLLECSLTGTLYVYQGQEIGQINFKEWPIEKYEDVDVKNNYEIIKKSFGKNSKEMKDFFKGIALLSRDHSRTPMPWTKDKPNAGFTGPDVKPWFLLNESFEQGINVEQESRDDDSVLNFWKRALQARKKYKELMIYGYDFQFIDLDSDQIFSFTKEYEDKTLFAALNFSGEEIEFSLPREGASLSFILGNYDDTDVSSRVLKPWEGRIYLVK

Row | SMILES | IC50 [1] [µM] | IC50 [2] [µM]
1 | O=C(/C=C/c1ccc(O)c(O)c1)O[C@@H]1[C@H](O)C[C@@](O)(C(=O)O)C[C@H]1OC(=O)/C=C/c1ccc(O)c(O)c1 [4,5-Di-O-CQA, 4,5-Di-O-caffeoylquinic acid] | 42.3 ± 1.18 | 62.1 ± 1.49
2 | O=C(/C=C/c1ccc(O)c(O)c1)OC1(C(=O)O)C[C@@H](O)C(O)[C@H](O)C1 (stereo partly drawn) [Compound 1-O-CQA] | 172 ± 5.34 | 1240 ± 42.1
3 | O=C(/C=C/c1ccc(O)c(O)c1)O[C@@H]1C[C@](O)(C(=O)O)C[C@@H](O)[C@H]1O [Compound 3-O-CQA, 3-O-caffeoylquinic acid] | 170 ± 4.41 | –
4 | O=C(/C=C/c1ccc(O)c(O)c1)O[C@@H]1C[C@](O)(C(=O)O)C[C@@H](O)[C@H]1O [Compound 5-O-CQA, 5-O-Caffeoylquinic acid] | 84.9 ± 2.37 | –
5 | O=C(/C=C/c1ccc(O)c(O)c1)OC1CC(O)(C(=O)O)CC(OC(=O)/C=C/c2ccc(O)c(O)c2)C1O (stereo not drawn) [3,5-Di-O-CQA, 3,5-Di-O-caffeoylquinic acid] | 51.3 ± 1.64 | 184 ± 5.34
6 | O=C(/C=C/c1ccc(O)c(O)c1)OC1CC(O)(C(=O)O)CC(O)C1OC(=O)/C=C/c1ccc(O)c(O)c1 (stereo not drawn) [3,4-Di-O-CQA, 3,4-Di-O-caffeoylquinic acid] | 67.2 ± 2.01 | 210 ± 6.5
7 | O=C(C=Cc1ccc(O)c(O)c1)OC1CC(OC(=O)C=Cc2ccc(O)c(O)c2)(C(=O)O)CC(O)C1O (stereo not drawn) [1,5-Di-O-CQA, 1,5-Di-O-caffeoylquinic acid] | 77.4 ± 2.24 | 754 ± 23.4
8 | O=C(/C=C/c1ccc(O)c(O)c1)O[C@H]1[C@H](O)C[C@](O)(C(=O)O)C[C@H]1O [Compound 4-O-CQA, 4-O-Caffeoylquinic acid] | 110 ± 3.39 | 1030 ± 40
9 | O=C(/C=C/c1ccc(O)c(O)c1)OC1CC(OC(=O)/C=C/c2ccc(O)c(O)c2)(C(=O)O)CC(O)C1O (stereo not drawn) [1,3-Di-O-CQA, 1,3-Di-O-caffeoylquinic acid] | 101 ± 2.81 | 984 ± 28.5
10 | O=C(/C=C/c1ccc(O)c(O)c1)OC1[C@H](OC(=O)/C=C/c2ccc(O)c(O)c2)CC(O)(C(=O)O)C[C@H]1OC(=O)/C=C/c1ccc(O)c(O)c1 (stereo partly drawn) [3,4,5-Tri-O-CQA] | 40.6 ± 1.05 | 61.1 ± 1.77
